In ChEMBL document CHEMBL5247607, “Design, synthesis and biological evaluation of a new series of arylidene indanones as small molecules for targeted therapy of non-small cell lung carcinoma and prostate cancer” (Eur J Med Chem, 2022):
One block for each molecule: values may come before it. Activity calls are given as the source filed them. The calls are words filed in the database; no cut-off is given here.

Assays:
A549 [1] = experiment: Cytotoxicity against human A549 cells assessed as inhibition of cell growth incubated for 24 hrs by MTT assay; assay type: functional, cell-based; details: A549, 24 h
[2] = Cytotoxicity against human CCD 19Lu cells assessed as inhibition of cell growth incubated for 24 hrs by MTT assay; assay type: toxicity, cell-based
[3] = Selectivity index, ratio of IC50 for cytotoxicity against human CCD 19Lu cells to IC50 for cytotoxicity against human A549 cells; assay type: toxicity, cell-based; details: CCD 19Lu cells versus A549 cells, read-out: Ratio IC50
PANC-1 [4] = experiment: Cytotoxicity against human PANC-1 cells assessed as inhibition of cell growth incubated for 24 hrs by MTT assay; assay type: functional, cell-based; details: PANC-1, 24 h
[5] = Cytotoxicity against human hTERT-HPNE cells assessed as inhibition of cell growth incubated for 24 hrs by MTT assay; assay type: toxicity, cell-based
[6] = Selectivity index, ratio of IC50 for cytotoxicity against human hTERT-HPNE cells to IC50 for cytotoxicity against human PANC-1 cells; assay type: toxicity, cell-based; details: hTERT-HPNE cells versus PANC-1 cells, read-out: Ratio IC50
[7] = biological target: Procathepsin L (Homo sapiens) (UniProt P07711); experiment: Inhibition of cathepsin L (unknown origin) at 100 uM
Chain of Procathepsin L (Homo sapiens) (P07711 114-333 limits assumed): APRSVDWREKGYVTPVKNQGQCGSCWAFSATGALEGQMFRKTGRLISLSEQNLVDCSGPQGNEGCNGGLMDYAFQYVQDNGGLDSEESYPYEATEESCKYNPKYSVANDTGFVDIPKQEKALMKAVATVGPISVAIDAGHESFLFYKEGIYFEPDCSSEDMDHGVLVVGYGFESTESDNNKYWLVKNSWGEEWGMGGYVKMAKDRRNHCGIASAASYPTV

[8] = biological target: Cathepsin D (Homo sapiens) (UniProt P07339); experiment: Inhibition of cathepsin D (unknown origin) at 100 uM relative to control
Chain of Cathepsin D (Homo sapiens) (P07339 65-162 limits assumed): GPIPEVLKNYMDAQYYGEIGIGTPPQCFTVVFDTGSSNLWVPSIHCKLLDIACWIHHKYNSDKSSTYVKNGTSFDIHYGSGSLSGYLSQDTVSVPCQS
Chain of Cathepsin D (Homo sapiens) (P07339 169-412 limits assumed): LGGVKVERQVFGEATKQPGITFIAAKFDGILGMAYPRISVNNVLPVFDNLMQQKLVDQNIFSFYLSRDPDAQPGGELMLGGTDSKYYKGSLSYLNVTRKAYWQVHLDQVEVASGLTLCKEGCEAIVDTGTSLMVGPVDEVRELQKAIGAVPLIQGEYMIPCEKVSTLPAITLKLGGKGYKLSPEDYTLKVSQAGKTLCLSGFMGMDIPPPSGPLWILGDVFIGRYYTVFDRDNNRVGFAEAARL

A549 [9] = experiment: Inhibition of DNA synthesis in human A549 cells at 1.49 uM incubated for 24 hrs by BrdU incorporation assay relative to control; assay type: functional
A549 [10] = experiment: Inhibition of DNA synthesis in human A549 cells at 2.98 uM incubated for 24 hrs by BrdU incorporation assay relative to control; assay type: functional
A549 [11] = experiment: Inhibition of DNA synthesis in human A549 cells at 5.96 uM incubated for 24 hrs by BrdU incorporation assay relative to control; assay type: functional
PANC-1 [12] = experiment: Inhibition of DNA synthesis in human PANC-1 cells at 5.96 uM incubated for 24 hrs by BrdU incorporation assay relative to control; assay type: functional
A549 [13] = experiment: Induction of apoptosis in human A549 cells assessed as early apoptotic cells at IC50 incubated for 24 hrs by annexin V-FITC/PI staining based flow cytometry analysis (reference value: 5.6%); assay type: functional
A549 [14] = experiment: Induction of apoptosis in human A549 cells assessed as late apoptotic cells at IC50 incubated for 24 hrs by annexin V-FITC/PI staining based flow cytometry analysis (reference value: 6.5 %); assay type: functional
A549 [15] = experiment: Induction of apoptosis in human A549 cells assessed as total cell viability at IC50 incubated for 24 hrs by annexin V-FITC/PI staining based flow cytometry analysis (reference value: 85.6 %); assay type: functional
PANC-1 [16] = experiment: Induction of apoptosis in human PANC-1 cells assessed as early apoptotic cells at IC50 incubated for 24 hrs by annexin V-FITC/PI staining based flow cytometry analysis (reference value: 0%); assay type: functional
PANC-1 [17] = experiment: Induction of apoptosis in human PANC-1 cells assessed as late apoptotic cells at IC50 incubated for 24 hrs by annexin V-FITC/PI staining based flow cytometry analysis (reference value: 0.2%); assay type: functional
PANC-1 [18] = experiment: Induction of apoptosis in human PANC-1 cells assessed as total cell viability at IC50 incubated for 24 hrs by annexin V-FITC/PI staining based flow cytometry analysis (reference value: 84.4%); assay type: functional
A549 [19] = experiment: Induction of apoptosis in human A549 cells assessed as activation of caspase-3 by measuring caspase-3 positive cells at IC50 incubated for 24 hrs by flow cytometry analysis (reference value: 8.4%); assay type: functional
A549 [20] = experiment: Induction of apoptosis in human A549 cells assessed as activation of caspase-3 by measuring caspase-3 negative cells at IC50 incubated for 24 hrs by flow cytometry analysis (reference value: 91.1%); assay type: functional
PANC-1 [21] = experiment: Induction of apoptosis in human PANC-1 cells assessed as activation of caspase-3 by measuring caspase-3 positive cells at IC50 incubated for 24 hrs by flow cytometry analysis (reference value: 1.8%); assay type: functional
PANC-1 [22] = experiment: Induction of apoptosis in human PANC-1 cells assessed as activation of caspase-3 by measuring caspase-3 negative cells at IC50 incubated for 24 hrs by flow cytometry analysis (reference value: 98.5 %); assay type: functional
A549 [23] = experiment: Induction of mitochondrial membrane potential loss in human A549 cells assessed as polarized cells at IC50 incubated for 24 hrs by JC-1 staining based flow cytometry assay (reference value: 90.6%); assay type: functional
A549 [24] = experiment: Induction of mitochondrial membrane potential loss in human A549 cells assessed as depolarized cells at IC50 incubated for 24 hrs by JC-1 staining based flow cytometry assay (reference value: 6.9%); assay type: functional
PANC-1 [25] = experiment: Induction of mitochondrial membrane potential loss in human PANC-1 cells assessed as polarized cells at IC50 incubated for 24 hrs by JC-1 staining based flow cytometry assay (reference value: 92%); assay type: functional
PANC-1 [26] = experiment: Induction of mitochondrial membrane potential loss in human PANC-1 cells assessed as depolarized cells at IC50 incubated for 24 hrs by JC-1 staining based flow cytometry assay (reference value: 5%); assay type: functional
A549 [27] = experiment: Induction of apoptosis in human A549 cells assessed as increase in intracellular calcium level at 5.96 uM by Fluo-4-AM staining based flow cytometry analysis; assay type: functional, cell-based
A549 [28] = experiment: Induction of morphological changes in human A549 cells assessed as cell shrinkage at 5.96 uM incubated for 24 hrs by acridine orange/ethidium bromide staining based fluorescence microscopic analysis; assay type: functional
A549 [29] = experiment: Induction of morphological changes in human A549 cells assessed as chromatin condensation at 5.96 uM incubated for 24 hrs by acridine orange/ethidium bromide staining based fluorescence microscopic analysis; assay type: functional, cell-based
A549 [30] = experiment: Induction of morphological changes in human A549 cells assessed as formation of apoptotic bodies at 5.96 uM incubated for 24 hrs by acridine orange/ethidium bromide staining based fluorescence microscopic analysis; assay type: functional, cell-based
PANC-1 [31] = experiment: Induction of morphological changes in human PANC-1 cells assessed as cell shrinkage at 5.96 uM incubated for 24 hrs by acridine orange/ethidium bromide staining based fluorescence microscopic analysis; assay type: functional
PANC-1 [32] = experiment: Induction of morphological changes in human PANC-1 cells assessed as chromatin condensation at 5.96 uM incubated for 24 hrs by acridine orange/ethidium bromide staining based fluorescence microscopic analysis; assay type: functional, cell-based
PANC-1 [33] = experiment: Induction of morphological changes in human PANC-1 cells assessed as formation of apoptotic bodies at 5.96 uM incubated for 24 hrs by acridine orange/ethidium bromide staining based fluorescence microscopic analysis; assay type: functional, cell-based
[34] = biological target: Cathepsin D (Homo sapiens) (UniProt P07339); experiment: Inhibition of cathepsin D (unknown origin) at 100 uM

- inhibition [7]: inactive
- inhibition [8]: 26%
Compound: CN1CCN(c2ccc(/C=C3\Cc4cc5c(cc4C3=O)OCO5)cc2)CC1
- IC50 (A549 [1]): 57.9 µM
- IC50 at 24 h [2]: > 1380 µM
- selectivity ratio [3]: > 23.8
- IC50 (PANC-1 [4]): 156 µM
- IC50 at 24 h [5]: > 1380 µM
- selectivity ratio [6]: > 8.82

- inhibition [7]: inactive
- inhibition [8]: 30.4%
Compound: CCN(CC)c1ccc(/C=C2\Cc3cc4c(cc3C2=O)OCO4)cc1
- IC50 (A549 [1]): < 11.6 µM
- IC50 at 24 h [2]: > 1490 µM
- selectivity ratio [3]: > 128
- IC50 (PANC-1 [4]): < 11.6 µM
- IC50 at 24 h [5]: > 1490 µM
- selectivity ratio [6]: > 128
- inhibition at 1.49 µM (A549 [9]): 22.1%
- inhibition at 2.98 µM (A549 [10]): 24.2%
- inhibition at 5.96 µM (A549 [11]): 39.6%
- inhibition at 5.96 µM (PANC-1 [12]): 23.6%
- Activity (A549 [13]): 26.7%
- Activity (A549 [14]): 27%
- Activity (A549 [15]): 38.8%
- Activity (PANC-1 [16]): 3.5%
- Activity (PANC-1 [17]): 1.5%
- Activity (PANC-1 [18]): 90.9%
- Activity (A549 [19]): 3.9%
- Activity (A549 [20]): 96.1%
- Activity (PANC-1 [21]): 3.1%
- Activity (PANC-1 [22]): 97.6%
- Activity (A549 [23]): 65.1%
- Activity (A549 [24]): 66.8%
- Activity (PANC-1 [25]): 29.7%
- Activity (PANC-1 [26]): 68.4%
- Activity (A549 [27]): Active
- Activity (A549 [28]): Active
- Activity (A549 [29]): Active
- Activity (A549 [30]): Active
- Activity (PANC-1 [31]): Active
- Activity (PANC-1 [32]): Active
- Activity (PANC-1 [33]): Active

- inhibition [7]: inactive
- inhibition [8]: 34.9%
Compound: O=C1/C(=C/c2ccc(N3CCOCC3)cc2)Cc2cc3c(cc21)OCO3
- IC50 (A549 [1]): 55.8 µM
- IC50 at 24 h [2]: > 1430 µM
- selectivity ratio [3]: > 25.6
- IC50 (PANC-1 [4]): 219 µM
- IC50 at 24 h [5]: 1210 µM
- selectivity ratio [6]: 5.52

- inhibition [7]: inactive
- inhibition [34]: inactive
Compound: CC(=O)Nc1ccc(/C=C2\Cc3cc4c(cc3C2=O)OCO4)cc1
- IC50 (A549 [1]): 115 µM
- IC50 at 24 h [2]: > 1560 µM
- selectivity ratio [3]: > 13.5
- IC50 (PANC-1 [4]): 160 µM
- IC50 at 24 h [5]: 57 µM
